Data from PubChem BioAssay AID330 (DTP/NCI, 2004).
Values joined by “and” are separate entries in the source; they are usually repeats but may differ in a detail not shown here. Equal values may be shown once. Inconclusive results and toxic doses are left out. How the source made its calls: active means survival T/C of 150% or more; inactive means T/C below 125% in these data.

Test system: P388 leukemia ip, CD2F1 mice, survival T/C
Test: NCI In Vivo Anticancer Drug Screen. Data for tumor model P388 Leukemia (intraperitoneal) in CD2F1 (CDF1) mice
Conditions: endpoint: median survival time, higher = longer survival
Outline: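 Mice carrying the transplanted tumor received test compound or vehicle. Survival was recorded in each group, and the value is the treated-group measurement divided by that of the vehicle-treated control group.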

[1] = dose: 12.5 mg/kg/injection, schedule: Q01DX009 (ip), vehicle: Klucel (hydroxypropylcellulose) (HPC)
[2] = dose: 400.0 mg/kg/injection, schedule: Q01DX009 (ip), vehicle: Klucel (hydroxypropylcellulose) (HPC)
[3] = dose: 50.0 mg/kg/injection, schedule: Q01DX009 (ip), vehicle: saline with Tween-80
[4] = dose: 200.0 mg/kg/injection, schedule: Q01DX009 (ip), vehicle: saline with Tween-80
[5] = dose: 50.0 mg/kg/injection, schedule: Q01DX005 (ip), vehicle: Klucel (hydroxypropylcellulose) (HPC)
[6] = dose: 100.0 mg/kg/injection, schedule: Q01DX005 (ip), vehicle: Klucel (hydroxypropylcellulose) (HPC)
[7] = dose: 200.0 mg/kg/injection, schedule: Q01DX005 (ip), vehicle: Klucel (hydroxypropylcellulose) (HPC)
[8] = dose: 50.0 mg/kg/injection, schedule: Q01DX009 (ip), vehicle: Klucel (hydroxypropylcellulose) (HPC)
[9] = dose: 100.0 mg/kg/injection, schedule: Q01DX009 (ip), vehicle: Klucel (hydroxypropylcellulose) (HPC)
[10] = dose: 200.0 mg/kg/injection, schedule: Q01DX009 (ip), vehicle: Klucel (hydroxypropylcellulose) (HPC)
[11] = dose: 50.0 mg/kg/injection, schedule: Q01DX009 (ip), vehicle: saline
[12] = dose: 25.0 mg/kg/injection, schedule: Q01DX009 (ip), vehicle: saline
[13] = dose: 60.0 mg/kg/injection, schedule: Q01DX005 (ip), vehicle: saline with Tween-80
[14] = dose: 120.0 mg/kg/injection, schedule: Q01DX005 (ip), vehicle: saline with Tween-80
[15] = dose: 240.0 mg/kg/injection, schedule: Q01DX005 (ip), vehicle: saline with Tween-80
[16] = dose: 50.0 mg/kg/injection, schedule: Q01DX005 (ip), vehicle: saline with Tween-80
[17] = dose: 100.0 mg/kg/injection, schedule: Q01DX005 (ip), vehicle: saline with Tween-80
[18] = dose: 200.0 mg/kg/injection, schedule: Q01DX005 (ip), vehicle: saline with Tween-80
[19] = dose: 100.0 mg/kg/injection, schedule: Q04DX003 (ip), vehicle: saline with Tween-80
[20] = dose: 200.0 mg/kg/injection, schedule: Q04DX003 (ip), vehicle: saline with Tween-80

Measured: T/C

C1CSCCSCCCSCCSCCCSCCSC1
inactive: dose: 100.0 mg/kg/injection, schedule: Q01DX001 (ip), vehicle: Klucel (hydroxypropylcellulose) (HPC) 97 % of control | dose: 200.0 mg/kg/injection, schedule: Q01DX001 (ip), vehicle: Klucel (hydroxypropylcellulose) (HPC) 105 % of control | dose: 400.0 mg/kg/injection, schedule: Q01DX001 (ip), vehicle: Klucel (hydroxypropylcellulose) (HPC) 97 % of control

COc1cc(C(=O)N=Nc2c(O)[nH]c3ccc(Br)cc23)cc(OC)c1OC
inactive: dose: 3.13 mg/kg/injection, schedule: Q01DX009 (ip), vehicle: Klucel (hydroxypropylcellulose) (HPC) 115 % of control | dose: 6.25 mg/kg/injection, schedule: Q01DX009 (ip), vehicle: Klucel (hydroxypropylcellulose) (HPC) 106 % of control | [1] 105 % of control | [2] 86 % of control

CCCOC(=O)c1ccccc1C(=O)O
inactive: [3] 105 % of control | dose: 100.0 mg/kg/injection, schedule: Q01DX009 (ip), vehicle: saline with Tween-80 104 % of control | [4] 101 % of control

CC1=C(C)[C@]2(C)C(C)[C@]13Cn1c(=O)n(-c4ccccc4)c(=O)n1[C@@]32C (some centres not stated)
inactive: [5] 95 % of control | [6] 94 % of control | [7] 100 % of control

O=C1N[C@H]2[C@H](CS[C@H]2CCCCC(=O)N(CCP(c2ccccc2)c2ccccc2)CCP(c2ccccc2)c2ccccc2)N1
inactive: [1] 104 % of control and 111 % of control | dose: 25.0 mg/kg/injection, schedule: Q01DX009 (ip), vehicle: Klucel (hydroxypropylcellulose) (HPC) 101 % of control and 105 % of control | [8] 103 % of control and 104 % of control | [9] 108 % of control and 124 % of control | [10] 114 % of control and 119 % of control | [2] 102 % of control and 114 % of control

O/N=C1\CCC2CCCCC12 (configuration not stated)
inactive: [5] 98 % of control | [6] 102 % of control | [7] 107 % of control

Clc1ccc(-c2nc(CSc3ccccn3)cs2)cc1
inactive: [11] 102 % of control | dose: 100.0 mg/kg/injection, schedule: Q01DX009 (ip), vehicle: saline 109 % of control | dose: 200.0 mg/kg/injection, schedule: Q01DX009 (ip), vehicle: saline 105 % of control

CCOC(=O)C(Cc1csc2ccc(Cl)cc12)NC(C)=O (configuration not stated)
inactive: [8] 94 % of control | [9] 95 % of control | [10] 99 % of control

O=C(O)C(O)CBr (configuration not stated)
inactive: dose: 12.5 mg/kg/injection, schedule: Q01DX009 (ip), vehicle: saline 100 % of control | [12] 95 % of control | dose: 25.0 mg/kg/injection, schedule: Q04DX003 (ip), vehicle: saline 91 % of control | [11] 95 % of control | dose: 50.0 mg/kg/injection, schedule: Q04DX003 (ip), vehicle: saline 87 % of control

O=c1c2ccccc2c(Br)c(Br)c2ccccc12
inactive: [13] 106 % of control | [14] 110 % of control | [15] 109 % of control

Cn1c2c(c(=O)n(C)c1=O)CS(=O)c1ccccc1N2 (configuration not stated)
inactive: dose: 25.0 mg/kg/injection, schedule: Q01DX005 (ip), vehicle: suspension in saline 103 % of control | dose: 50.0 mg/kg/injection, schedule: Q01DX005 (ip), vehicle: suspension in saline 96 % of control | dose: 100.0 mg/kg/injection, schedule: Q01DX005 (ip), vehicle: suspension in saline 96 % of control | dose: 200.0 mg/kg/injection, schedule: Q01DX005 (ip), vehicle: suspension in saline 97 % of control

COc1c(C(C)C)ccc2c1CCC1=C3COC(=O)C3CCC12C (configuration not stated)
inactive: dose: 6.25 mg/kg/injection, schedule: Q01DX009 (ip), vehicle: DMSO 109 % of control | dose: 12.5 mg/kg/injection, schedule: Q01DX009 (ip), vehicle: DMSO 99 % of control | dose: 25.0 mg/kg/injection, schedule: Q01DX009 (ip), vehicle: DMSO 97 % of control

Nc1n[nH]c(N)c1N=Nc1ccccc1
inactive: [8] 98 % of control | [9] 99 % of control | [10] 93 % of control | [2] 94 % of control

[Se]=P(c1ccccc1)(N1CCOCC1)N1CCOCC1
inactive: dose: 13.75 mg/kg/injection, schedule: Q01DX001 (ip), vehicle: Klucel (hydroxypropylcellulose) (HPC) 96 % of control | dose: 27.5 mg/kg/injection, schedule: Q01DX001 (ip), vehicle: Klucel (hydroxypropylcellulose) (HPC) 112 % of control

CCN(CC)c1c(C)c(-c2ccccc2)oc(=O)c1-c1ccccc1
inactive: [8] 105 % of control | [9] 100 % of control | [10] 100 % of control

O=C(NC(C(=O)NO)C(NO)c1ccccc1)c1ccccc1 (configuration not stated)
inactive: [16] 103 % of control | [17] 102 % of control | [18] 102 % of control

CCC1=[N+](C)C(C)(C)CC(C)O1 (configuration not stated)
inactive: dose: 12.5 mg/kg/injection, schedule: Q04DX003 (ip), vehicle: saline with Tween-80 100 % of control | dose: 25.0 mg/kg/injection, schedule: Q04DX003 (ip), vehicle: saline with Tween-80 100 % of control | dose: 50.0 mg/kg/injection, schedule: Q04DX003 (ip), vehicle: saline with Tween-80 95 % of control

FC(F)(F)c1cccc(COCCN2CCN(Cc3cccc(C(F)(F)F)c3)CC2)c1
inactive: [13] 103 % of control | [14] 95 % of control | [15] 112 % of control

C=C(C)CNC(=O)C(C)O (configuration not stated)
inactive: [16] 97 % of control | [17] 93 % of control | [18] 99 % of control

CCCCN(CCCC)C(C)C(O)c1ccc2cc(Br)c3ccccc3c2c1 (configuration not stated)
inactive: [16] 100 % of control | [17] 98 % of control | [18] 91 % of control

CC(=O)OC1CCC2(C)C(C1)CC(OC(C)=O)C1C2CC(OC(C)=O)C2(C)C(/C(C)=C\C=C(c3ccccc3)c3ccccc3)CCC12 (configuration not stated)
inactive: [8] 103 % of control | [9] 112 % of control | [10] 121 % of control

NS(=O)(=O)c1ccc(N=Nc2c(O)n(-c3ccccc3)n(-c3ccccc3)c2=O)cc1
inactive: dose: 100.0 mg/kg/injection, schedule: Q04DX003 (ip), vehicle: Klucel (hydroxypropylcellulose) (HPC) 107 % of control | dose: 200.0 mg/kg/injection, schedule: Q04DX003 (ip), vehicle: Klucel (hydroxypropylcellulose) (HPC) 102 % of control | dose: 400.0 mg/kg/injection, schedule: Q04DX003 (ip), vehicle: Klucel (hydroxypropylcellulose) (HPC) 102 % of control

Cc1cc(C)c(C#N)c(SSC(Cl)(Cl)Cl)n1
inactive: [16] 96 % of control | [17] 93 % of control | [18] 91 % of control

NC(=O)NC1CCCCCC1
inactive: [19] 100 % of control | [20] 100 % of control | dose: 400.0 mg/kg/injection, schedule: Q04DX003 (ip), vehicle: saline with Tween-80 109 % of control

Cc1nc2c(cnn2C)c(=O)n1-c1cccc(Cl)c1
inactive: [5] 98 % of control | [6] 100 % of control | [7] 87 % of control

CC(=O)N(c1ccccc1)[Si](C)(C)C
inactive: dose: 100.0 mg/kg/injection, schedule: Q01DX001 (ip), vehicle: saline with Tween-80 107 % of control | dose: 200.0 mg/kg/injection, schedule: Q01DX001 (ip), vehicle: saline with Tween-80 106 % of control | dose: 400.0 mg/kg/injection, schedule: Q01DX001 (ip), vehicle: saline with Tween-80 100 % of control

COc1ccc(C(=O)[Se][Se]C(=O)c2ccc(OC)cc2)cc1
inactive: dose: 6.25 mg/kg/injection, schedule: Q01DX009 (ip), vehicle: saline with Tween-80 100 % of control | dose: 12.5 mg/kg/injection, schedule: Q01DX009 (ip), vehicle: saline with Tween-80 102 % of control

Cc1ccc(NC(=O)N(CCCCl)N=O)cc1
inactive: [3] 86 % of control | [19] 95 % of control | [4] 100 % of control | [20] 90 % of control

COC(=O)Nc1nc2ccc(Br)cc2[nH]1
inactive: dose: 200.0 mg/kg/injection, schedule: Q04DX003 (oral), vehicle: saline with Tween-80 115 % of control | dose: 400.0 mg/kg/injection, schedule: Q04DX003 (oral), vehicle: saline with Tween-80 107 % of control | dose: 800.0 mg/kg/injection, schedule: Q04DX003 (oral), vehicle: saline with Tween-80 104 % of control | dose: 1600.0 mg/kg/injection, schedule: Q04DX003 (oral), vehicle: saline with Tween-80 120 % of control

O=[N+]([O-])c1c(O)c(CNCCCO)cc(CNCCCO)c1O
inactive: [12] 113 % of control | [11] 116 % of control
